Data published in patent publication US8865200B2, “Sustained release compositions containing progesterone receptor modulators” (Laboratoire HRA Pharma, priority 2004, dated 2014).

Tests used:
[1] = Pharmacokinetic study of vaginal rings in women (serum levels by radioimmunoassay and LC/MS); format: in vivo
Experimental: A pharmacokinetic study was conducted abroad in two clinics. Radioimmunoassay and liquid chromatography/mass spectroscopic method (LC/MS) were used to measure the serum levels of CDB-2914 and its immunoreactive metabolites. […] After insertion of the ring into the subjects, CDB-2914 was absorbed into the blood stream, increased continuously and reached a plateau at approximately 7 days post-insertion (2-3 ng/mL). Serum levels decreased upon removal of ring at Day 29 (See FIGS. 5A and 5B).

[2] = In vitro release rate from vaginal rings; format: physicochemical; conditions: for in vitro release rate: vaginal ring, 20% load W/W, redistilled water, 37 C
Experimental: Thread was used to suspend the rings prepared in example 1 individually in 500 mL wide mouth polyethylene bottles with screw caps. 400 mL of redistilled water was added, and the bottles were placed in a shaking water bath at 37 C. The bath was set to make 100 one-inch strokes per minute. The bathing solution was changed every 24 hours. The CDB-2914 concentration in the aqueous medium was measured via HPLC to determine the release rate of CDB-2914.
Using the same in vitro release rate analysis, vaginal rings were prepared containing either CDB-2914 (20% load, W/W) or mifepristone (20% load, W/W) with several different diameters of silicone tubes, and with tubes containing 18% ethylene vinyl acetate (EVA) as a rate-limiting layer. The rings were prepared by mixing CDB-2914 in a silicone elastomer matrix that was filled into a silicone tube. Upon polymerization, tube was cut into a 16 cm length and the two ends were joined with medical adhesive to form a ring. This vaginal ring has an inner layer of silicone rubber and active agent, and an outer, rate limiting layer. With a silicone tube containing 18% EVA, CDB-2914 was released at the rate of about 96 μg/ring/day, whereas the release of mifepristone was negligible. Using silicone tube C, CDB-2914 was diffused out at more than a 3-fold higher rate than mifepristone (160 μg/ring/day vs. 48 μg/ring/day).

Water solubility = format: physicochemical
[3] = silicone tube containing 18% EVA as rate-limiting layer

| SMILES | serum levels upon removal of ring ([1]; ring removed at Day 29) | bursting release immediately after insertion of the rings ([1]; vaginal ring) | serum concentration compared to Nestorone (NES) ([1]; vaginal ring) | time to reach serum plateau ([1]; vaginal ring) | serum level at plateau ([1]; vaginal ring, plateau at approximately 7 days post-insertion) [ng/mL] | release rate relative to mifepristone ([2]; silicone tube C) [fold] | in vitro release rate ([2]; silicone tube C) [μg/ring/day] | in vitro release rate [2, 3] | water solubility (Water solubility) |
| --- | --- | --- | --- | --- | --- | --- | --- | --- | --- |
| CC(=O)O[C@]1(C(C)=O)CC[C@H]2[C@@H]3CCC4=CC(=O)CCC4=C3[C@@H](c3ccc(N(C)C)cc3)C[C@@]21C [CDB-2914, 17α-acetoxy-11β-(4-N,N-dimethylaminophenyl)-19-norpregna-4,9-diene-3,20-dione] | decreased | No bursting release | higher than that of Nestorone | approximately 7 days post-insertion | 2 to 3 | > 3 | 160 | about 96 μg/ring/day | not water soluble |
| CC#C[C@]1(O)CC[C@H]2[C@@H]3CCC4=CC(=O)CCC4=C3[C@@H](c3ccc(N(C)C)cc3)C[C@@]21C [mifepristone, reference compound] |  |  |  |  |  |  | 48 | negligible |  |
